#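 Briefly, cells in 96-well plates were exposed to five compound concentrations for 48 h, and endpoints were estimated by linear interpolation. Abbreviation: GI50, concentration required for 50% inhibition of growth.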 Activity calls are given as the source filed them. No stated cut-off is given here; in the data, active = GI50 up to about 1.1 µM and inactive = higher.
# Legend:
# Test in all cases: inhibition of tumour cell growth, NCI panel, 48 h
# A498 = system: A498
# BT-549 = system: BT-549
# CAKI-1 = system: CAKI-1
# EKVX = system: EKVX
# HCC 2998 = system: HCC 2998
# HCT-15 = system: HCT-15
# KM12 = system: KM12
# LOX IMVI = system: LOX IMVI
# M14 = system: M14
# MDA-MB-435 = system: MDA-MB-435
# NCI-H23 = system: NCI-H23
# NCI-H522 = system: NCI-H522
# OVCAR-5 = system: OVCAR-5
# SF-295 = system: SF-295
# SF-539 = system: SF-539
# SK-MEL-28 = system: SK-MEL-28
# SK-MEL-2 = system: SK-MEL-2
# SK-OV-3 = system: SK-OV-3
SMILES,GI50 (A498),GI50 (BT-549),GI50 (CAKI-1),GI50 (EKVX),GI50 (HCC 2998),GI50 (HCT-15),GI50 (KM12),GI50 (LOX IMVI),GI50 (M14),GI50 (MDA-MB-435),GI50 (NCI-H23),GI50 (NCI-H522),GI50 (OVCAR-5),GI50 (SF-295),GI50 (SF-539),GI50 (SK-MEL-28),GI50 (SK-MEL-2),GI50 (SK-OV-3)
c1ccc2c(c1)CCCN1CCc3ccccc3C21 (configuration not stated),> 100 µM (inactive),60.1 µM (inactive),93.5 µM (inactive),39.9 µM (inactive),44.3 µM (inactive),> 100 µM,45.6 µM (inactive),29.6 µM (inactive),26.9 µM (inactive),19.8 µM (inactive),48.4 µM (inactive),> 100 µM (inactive),42.2 µM (inactive),40.2 µM (inactive),24 µM (inactive),31.4 µM (inactive),96.6 µM (inactive),66.5 µM (inactive)
CCCCCCCCCCCCCCCCCCNc1ccn(C2OC(COP(=O)(O)OCC3OC(n4cc(C)c(=O)[nH]c4=O)CC3O)C(O)C2O)c(=O)n1 (configuration not stated),24.8 µM (inactive),14.7 µM (inactive),18.4 µM (inactive),19.4 µM (inactive),16.7 µM (inactive),16.1 µM,18.3 µM (inactive),17.7 µM (inactive),17 µM (inactive),16.9 µM (inactive),15.2 µM (inactive),15.8 µM (inactive),14.8 µM (inactive),18.7 µM (inactive),17.3 µM (inactive),17.5 µM (inactive),,17.1 µM (inactive)
Cc1ccc(OCC2OC(C#N)C(Oc3ccc(C)cc3)C2Oc2ccc(C)cc2)cc1 (configuration not stated),> 100 µM (inactive),> 100 µM (inactive),> 100 µM (inactive),> 100 µM (inactive),> 100 µM (inactive),> 100 µM,> 100 µM (inactive),,> 100 µM (inactive),> 100 µM (inactive),> 100 µM (inactive),> 100 µM (inactive),> 100 µM (inactive),> 100 µM (inactive),> 100 µM (inactive),> 100 µM (inactive),51.8 µM (inactive),> 100 µM (inactive)
c1ccc(-c2nnc(-c3ccccn3)c3c2C[C@@H]2C[C@@H]4Cc5c(-c6ccccn6)nnc(-c6ccccn6)c5[C@@H]4[C@H]32)nc1,2.39 µM (inactive),41.2 µM (inactive),58.7 µM (inactive),18 µM (inactive),39.9 µM (inactive),38.8 µM,51.2 µM (inactive),55.5 µM (inactive),20 µM (inactive),50.6 µM (inactive),> 100 µM (inactive),96.6 µM (inactive),61 µM (inactive),58.9 µM (inactive),85.7 µM (inactive),34.8 µM (inactive),51.1 µM (inactive),> 100 µM (inactive)
COc1cc(/C=C2/SC(c3ccccc3)N(c3cccc(Cl)c3)C2=O)cc(OC)c1OC (configuration not stated),81.7 µM (inactive),24.1 µM (inactive),35.9 µM (inactive),41.3 µM (inactive),36.3 µM (inactive),20.7 µM,32.4 µM (inactive),12.1 µM (inactive),19.8 µM (inactive),17.6 µM (inactive),22.9 µM (inactive),11.5 µM (inactive),29.9 µM (inactive),8.22 µM (inactive),22.5 µM (inactive),26.2 µM (inactive),59.3 µM (inactive),20.9 µM (inactive)
COC(=O)c1ccc(C)cc1C1CN=NC12Cc1c(C)cccc1C2=O (configuration not stated),52.5 µM (inactive),75 µM (inactive),50.6 µM (inactive),> 100 µM (inactive),> 100 µM (inactive),28.6 µM,32.1 µM (inactive),24.3 µM (inactive),,41 µM (inactive),39.4 µM (inactive),24.2 µM (inactive),73.5 µM (inactive),50.4 µM (inactive),89.1 µM (inactive),80.4 µM (inactive),43.5 µM (inactive),94.8 µM (inactive)
O=c1[nH]cnc2c1ncn2[C@H]1CO[C@@H](CO)[C@@H]1O,> 100 µM (inactive),> 100 µM (inactive),> 100 µM (inactive),> 100 µM (inactive),> 100 µM (inactive),> 100 µM,> 100 µM (inactive),> 100 µM (inactive),,> 100 µM (inactive),> 100 µM (inactive),> 100 µM (inactive),> 100 µM (inactive),> 100 µM (inactive),> 100 µM (inactive),> 100 µM (inactive),> 100 µM (inactive),> 100 µM (inactive)
Nc1nc(Cl)c2ncn(Cc3ccc(CCl)cc3)c2n1,22 µM (inactive),6.84 µM (inactive),2.49 µM (inactive),2.58 µM (inactive),0.497 µM (active),4.95 µM,8.07 µM (inactive),5.41 µM (inactive),14 µM (inactive),16.6 µM (inactive),12 µM (inactive),10.7 µM (inactive),3.29 µM (inactive),10.8 µM (inactive),3.13 µM (inactive),18 µM (inactive),11.5 µM (inactive),15.1 µM (inactive)
O=C(N/N=C(/c1ccccc1)C(F)(F)F)c1ccncc1,> 100 µM (inactive),> 100 µM (inactive),> 100 µM (inactive),,> 100 µM (inactive),> 100 µM,> 100 µM (inactive),,> 100 µM (inactive),> 100 µM (inactive),> 100 µM (inactive),> 100 µM (inactive),> 100 µM (inactive),> 100 µM (inactive),,> 100 µM (inactive),> 100 µM (inactive),> 100 µM (inactive)
CCCCn1c(-c2ccc([N+](=O)[O-])cc2)cs/c1=N/N=C1\C(=O)Nc2ccc(Br)cc21,17.4 µM (inactive),22.6 µM (inactive),21.4 µM (inactive),24.7 µM (inactive),17.9 µM (inactive),21.9 µM,14.6 µM (inactive),18.9 µM (inactive),12.1 µM (inactive),14.1 µM (inactive),16.6 µM (inactive),14.2 µM (inactive),30.5 µM (inactive),22.9 µM (inactive),14 µM (inactive),29.4 µM (inactive),,19.5 µM (inactive)
Nc1cc(Cl)cc2cc(Cl)cnc12,49 µM (inactive),> 100 µM (inactive),> 100 µM (inactive),39.9 µM (inactive),> 100 µM (inactive),> 100 µM,> 100 µM (inactive),> 100 µM (inactive),> 100 µM (inactive),> 100 µM (inactive),> 100 µM (inactive),57 µM (inactive),> 100 µM (inactive),> 100 µM (inactive),> 100 µM (inactive),> 100 µM (inactive),,> 100 µM (inactive)
CC(C)(CC1(C)NC(=O)NC1=O)OCc1ccccc1 (configuration not stated),> 100 µM (inactive),> 100 µM (inactive),> 100 µM (inactive),> 100 µM (inactive),> 100 µM (inactive),> 100 µM,> 100 µM (inactive),> 100 µM (inactive),> 100 µM (inactive),> 100 µM (inactive),> 100 µM (inactive),> 100 µM (inactive),> 100 µM (inactive),> 100 µM (inactive),,> 100 µM (inactive),> 100 µM (inactive),> 100 µM (inactive)
Cc1cccc(C2NC(=O)c3ccccc3N2)c1 (configuration not stated),6.4 µM (inactive),5.68 µM (inactive),8.65 µM (inactive),7.76 µM (inactive),6.64 µM (inactive),2.85 µM,3.21 µM (inactive),> 27 µM (inactive),2.64 µM (inactive),0.399 µM (active),5.11 µM (inactive),3.69 µM (inactive),17.3 µM (inactive),2.88 µM (inactive),2.33 µM (inactive),> 28.7 µM (inactive),,4.4 µM (inactive)
Cc1ccc2c(c1C)CC1(Cc3c(ccc4c3CCC4)C1=O)C2=O (configuration not stated),> 100 µM (inactive),> 100 µM (inactive),> 100 µM (inactive),> 100 µM (inactive),> 100 µM (inactive),> 100 µM,> 100 µM (inactive),,52.4 µM (inactive),46.3 µM (inactive),> 100 µM (inactive),> 100 µM (inactive),> 100 µM (inactive),> 100 µM (inactive),0.652 µM (active),> 100 µM (inactive),> 100 µM (inactive),> 100 µM (inactive)
C=C1C(O)CC[C@]2(C)C1C1OC(C)(C)O[C@]13CC(=O)C(C)=C([C@H]1OC(C)(C)OC12)C3(C)C (some centres not stated),23.1 µM (inactive),> 100 µM (inactive),> 100 µM (inactive),> 100 µM (inactive),> 100 µM (inactive),> 100 µM,> 100 µM (inactive),> 100 µM (inactive),,> 100 µM (inactive),> 100 µM (inactive),,> 100 µM (inactive),> 100 µM (inactive),> 100 µM (inactive),> 100 µM (inactive),,> 100 µM (inactive)
CC(=O)NC1C(OCc2ccccc2)OC(CO)C(O)C1OCC(=O)NC(C)C(=O)NC(CCC(=O)NCCCCCNc1c2ccccc2nc2cccc([N+](=O)[O-])c12)C(N)=O (configuration not stated),< 0.0001 µM (active),< 0.0001 µM (active),< 0.0001 µM (active),0.00197 µM (active),< 0.0001 µM (active),< 0.0001 µM,< 0.0001 µM (active),0.00169 µM (active),< 0.0001 µM (active),< 0.0001 µM (active),< 0.0001 µM (active),< 0.0001 µM (active),< 0.0001 µM (active),< 0.0001 µM (active),< 0.0001 µM (active),< 0.0001 µM (active),< 0.0001 µM (active),

# From ChEMBL document CHEMBL1201862, “PubChem BioAssay data set” (2004)
